{"source": "patent US20220104468A1", "about": "“MODULATION OF LC3-ASSOCIATED ENDOCYTOSIS PATHWAY AND GENETICALLY MODIFIED NON-HUMAN ANIMALS AS A MODEL OF NEUROINFLAMMATION AND NEURODEGENERATION” (St. Jude Children's Research Hospital, priority 2019, published 2022)", "key": {"Atg16L^ΔWD mice [1]": {"tested_on": "Atg16L^ΔWD mice", "assay": "Brain pathology by immunofluorescence/TUNEL after 8 weeks of MCC950 in mice with established disease", "type": "in vivo, mouse", "details": "MCC950 10 mg/kg i.p. every 3 days for 8 weeks", "protocol": "Inflammasome inhibition has recently been proposed as putative therapeutic approach that reduces neuroinflammation and Tau phosphorylation (PMID: 31748742). Thus, Atg16L WD-domain deficient mice (Atg16L^ΔWD mice) with established disease (starting at 20 months of age) and behavioral impairment, as measured by both impaired spontaneous alternation and NOR (FIGS. 19A-19B), were treated with the brain-penetrant inflammasome inhibitor MCC950. […] However, no difference in Aβ deposition was observed between placebo and MCC950-treated mice (FIG. 19E).\nAtg16^ΔWD mice were generated by deletion of the WD-domain of Atg16L, as previously described (Rai et al 2018(online) Autophagy 15(4)599-612). In brief, 2 stop codons were inserted into exon 6 of murine Atg16L1 immediately after glutamate E230 to preserve binding sites for WIPI2 (required for canonical autophagy) but prevent translation of the linker and WD-domain. Mice were produced and maintained on a mixed 129, C57BL/6 background. Unless otherwise noted, all experiments were performed on mixed sex cohorts at 2 years of age. Mice treated with MCC950 or placebo were mixed sex cohorts, 20 months of age at time of treatment onset and were treated for 8-weeks. The genetic backgrounds of mice used were assessed at the DartMouse™ Speed Congenic Core Facility at the Geisel School of Medicine at Dartmouth. DartMouse uses the Illumina, Inc. (San Diego, Calif.) Infinium Genotyping Assay to interrogate a custom panel of 5307 SNPs spread throughout the genome. The raw SNP data was analyzed using DartMouse's SNaP-Map™ and Map-Synth™ software, allowing the determination for each mouse of the genetic background at each SNP location. Background strain percentage was subsequently compared against markers of disease pathology to evaluate any influence stemming from variations in background (FIG. 18).\nFor preparation of brain tissue see “Preparation of brain samples” below. Slides were subjected to antigen retrieval using 1% sodium citrate boiling for 20 min followed by 3× PBS washing. Slides were blocked in 0.5% BSA in PBS. Antibody staining was carried out as described above. Following final washing, slides were mounted using ProLong Diamond Anti-Fade mounting media with DAPI.\nImage analysis for relative Aβ, Iba1, and phospho-Tau staining was achieved by quantifying the mean fluorescent intensity (MFI) of either Iba1 or phospho-Tau signal using NIS-elements. Analysis and quantification of microglial morphology was achieved using Slidebook 6 software. Morphological state was determined by measuring cell diameter following 3D reconstruction and confirmed by manual counting/analysis of microglia shape per defined field across multiple areas of each slide. […]"}, "Atg16L^ΔWD mice [2]": {"tested_on": "Atg16L^ΔWD mice", "assay": "Y-maze spontaneous alternation after MCC950 treatment", "type": "in vivo, mouse", "details": "MCC950 8 weeks, trending towards wild-type littermates", "protocol": "For Y-maze spontaneous alternation analysis, mice were housed in the testing room and allowed to acclimate for 48h. The Y-maze test consisted of a single 5 min trial per mouse. Spontaneous Alternation [%] was defined as consecutive entries in 3 different arms (ABC), divided by the number of possible alternations (total arm entries minus 2). Mice with less than 5 arm entries during the 5 min trial were excluded from the analysis.\n(§1) Mice with established disease were treated for 8-weeks with either a vehicle (placebo) control or MCC950 (Invivogen) as reported previously (Gordon et al. 2018 Science Translational Medicine 10(465)). In brief, MCC950 was suspended in 100% DMSO and titrated to a working dose using sterile water. The final concentration of DMSO in the injection was <1%. Matching solution without MCC950 was used as the vehicle (placebo). Mice were injected every 3 days for 8-weeks at a dose of 10 mg/kg via intraperitoneal injection."}, "Atg16L^ΔWD mice [3]": {"tested_on": "Atg16L^ΔWD mice", "assay": "Novel object recognition (NOR) after MCC950 treatment", "type": "in vivo, mouse", "details": "MCC950 8 weeks, trending towards wild-type littermates", "protocol": "Novel object recognition (NOR) was performed in an open-field box (40 cm×40 cm). Mice were allowed to acclimate to the testing room for 48h. For habituation, mice were allowed to explore the open-field for 15 min per day for two days. Mice were then exposed to two identical objects for 10 min on the day of testing. 2h later a novel object was introduced, and mice were allowed to explore for 5 min during the test phase. The time spent exploring each object was quantified manually. Novel object preference (%) and the discrimination index ((time with novel)/(novel+familiar)*100) were calculated for each mouse.\nas §1"}, "BV2 microglia [4]": {"tested_on": "BV2 microglia", "assay": "Phagocytosis versus endocytosis substrate uptake with latrunculin A (flow cytometry, imaging)", "type": "cell-based, murine", "details": "50 μM latrunculin A", "protocol": "(§2) In an attempt to delineate the discrepancies in β-amyloid accumulation in the animal models presented above and the role of the autophagy proteins in this process, BV2 murine microglial cells expressing GFP-LC3 that are deficient in FIP200, ATG5, or Rubicon were engineered using CRISPR/Cas9 (FIG. 3A). Cells were cultured in the presence of neurotoxic oligomeric AP 1-42 labeled with TAMRA.\nFor all uptake assays, cells were analyzed without fixation. For membrane-associated GFP-LC3 analysis, cells were processed as described below. For brain infiltrating monocytes, cells were isolated as described using the Neural Tissue Dissociation Kit (Miltenyi). Primary cells were fixed, permeabilized, and stained using the Cyto Fix/Perm Staining Kit (BD Bioscience) and the indicated, conjugated primary antibodies. For all experiments, cells were analyzed using a Sony SP6800 Spectral Analyzer (Sony). All analyses were performed using FlowJo v10.4 (Tree Star). Fluorescent compensation was performed using BD compensation beads (BD Bioscience).\n(§3) To delineate between phagocytosis and endocytosis, cells were treated as indicated with the phagocytic inhibitor latrunculin A. Cells were pre-treated for 1 h prior to the addition of target substrates. The following control substrates were used, zymosan (phagocytosis) and dextran (endocytosis), both were fluorescently labeled as indicated. Co-incubation with specific substrates was carried out at 37° C. for 3h. Cells were either fixed for imaging or analyzed by flow cytometry as described above respectively."}, "BV2 microglia [5]": {"tested_on": "BV2 microglia", "assay": "Membrane-associated GFP-LC3 by flow cytometry", "type": "cell-based, murine", "details": "parental BV2 microglia, latrunculin A versus vehicle", "protocol": "as §2\nTo quantify membrane association of GFP-LC3, cells were harvested and permeabilized using 200 μg/ml digitonin for 15 min on ice. Cytosolic GFP-LC3 was removed by washing cells 5× in cold PBS. Cells were then resuspended in 0.5% BSA in PBS for analysis by flow cytometry as described above.\nas §3"}, "[6]": {"tested_on": "BV2 murine microglial cells expressing GFP-LC3", "assay": "LC3 recruitment/co-localization to β-amyloid in GFP-LC3 BV2 cells (imaging)", "type": "cell-based", "details": "parental BV2 GFP-LC3 cells, TAMRA-labeled oligomeric peptide", "protocol": "as §2\n(§4) Both labeled and unlabeled Ab1-42 was purchased in lyophilized form and resuspended according to the manufacturer's recommendation at a concentration of 100 μM (Anaspec). In brief, Ab1-42 was resuspended to 5 mM in DMSO and then adjusted to 100 μM using DMEM/F12 culture media. Oligomerization was allowed to occur for 24h at 4° C. prior to addition to cells at 1 μM unless otherwise indicated.\nFor all non-live cell-based imaging, cells were cultured in 4-well chamber slides (Ibidi) and were fixed and stained as indicated. In brief, cells were fixed with 4% PFA for 10 min followed by permeabilization using 200 μg/ml digitonin for 10 min. Cells were blocked in 0.5% BSA in PBS for 30 min prior to staining with primary antibodies overnight at 4° C. Cells were then washed 3× in PBS and then stained with the indicated fluorescent secondary antibodies for 30 min. Cells were subsequently washed 3× with PBS and post-fixed in 1% PFA for 10 min prior to imaging. […]"}, "BV2 cells": {"tested_on": "BV2 cells", "assay": "Pro-inflammatory gene expression by qPCR after oligomeric Aβ1-42", "type": "cell-based, murine", "details": "BV2 cells treated with Aβ1-42", "protocol": "Similarly, the effects of Aβ1-42 on microglia were examined. As expected, BV2 cells treated with Aβ1-42 had elevated pro-inflammatory gene expression, including IL-1β, IL-6, CCL5, and TNFα as reported (Pan et al. (2011) Mol Neurodegener 6:45) and consistent with human disease.\nas §4\nTotal RNA was isolated from cells or tissue using the RNeasy Kit (Qiagen) according to the manufacturer's instructions. First-strand synthesis was performed using M-MLV reverse transcriptase (Invitrogen). Realtime PCR was performed using SYBR GREEN PCR master mix (Applied Biosystems) in an Applied Biosystems 7900HT thermocycler using SyBr Green detection protocol as outlined by the manufacturer using the following PCR conditions: 50° C. for 2 min, 95° C. for 10 min, and 40 cycles of 95° C. for 15s and 60° C. for 1 min. mRNA was normalized to actin allowing for comparison of mRNA levels. Please see key reagents table for qPCR primer sequences."}}, "data": [{"molecule": "CC(C)(O)c1coc(S(=O)(=O)NC(=O)Nc2c3c(cc4c2CCC4)CCC3)c1", "note": "[MCC950]", "values": [{"measurement": "microglial activation (Iba1 staining, hippocampus)", "setting": "Atg16L^ΔWD mice [1]; 20 months at onset, compared to placebo", "value": "reduced"}, {"measurement": "Aβ deposition (hippocampus)", "setting": "Atg16L^ΔWD mice [1]; versus placebo", "value": "no difference"}, {"measurement": "Tau phosphorylation (S199/202, CA3-field)", "setting": "Atg16L^ΔWD mice [1]; versus placebo", "value": "massive reduction"}, {"measurement": "neurodegeneration as measured by TUNEL staining (CA3-field)", "setting": "Atg16L^ΔWD mice [1]; versus placebo", "value": "massive reduction"}, {"measurement": "behavioral and memory capacity in the Y-maze (spontaneous alternation)", "setting": "Atg16L^ΔWD mice [2]", "value": "restoration"}, {"measurement": "behavioral and memory capacity in NOR (novel object preference, discrimination index)", "setting": "Atg16L^ΔWD mice [3]", "value": "restoration"}]}, {"molecule": "C/C1=C/C(=O)O[C@@H]2C[C@@H](CC[C@H](C)/C=C\\C=C\\CC1)O[C@@](O)([C@@H]1CSC(=O)N1)C2", "note": "[latrunculin A]", "values": [{"measurement": "uptake of the endocytic substrate dextran", "setting": "BV2 microglia [4]; dextran 500 ng/ml", "value": "had no effect"}, {"measurement": "internalization of the phagocytic substrate zymosan", "setting": "BV2 microglia [4]; zymosan 4:1 particle:cell", "value": "prevented the internalization"}, {"measurement": "uptake of β-amyloid", "setting": "BV2 microglia [4]; β-amyloid 1 μM", "value": "had no effect"}, {"measurement": "association of LC3 to endosomal membranes in response to β-amyloid", "setting": "BV2 microglia [5]", "value": "did not alter"}]}, {"molecule": "Aβ1-42: neurotoxic oligomeric β-amyloid 1-42 peptide, labeled or unlabeled (Anaspec)", "values": [{"measurement": "co-localization/recruitment of LC3 to the β-amyloid", "setting": "[6]", "value": "induced rapid co-localization"}, {"measurement": "pro-inflammatory gene expression, including IL-1β, IL-6, CCL5, and TNFα", "setting": "BV2 cells", "value": "elevated"}]}]}
